Assay results as given in patent US9896512B2, “Antitumor peptide derived from a complementarity determining region of a humanized monoclonal antibody to NAP12B transporter” (Recepta Biopharma S.A., priority 2010, dated 2018).
Positions of bridges follow the written chain, without caps; N, C: chain ends. Non-standard residues stand in square brackets, D forms with d. No end group written: not given here. dCit = NC(=O)NCCC[C@@H](N)C(=O)O

Assays:
[1] = tested on: B16F10-Nex2 melanoma cells; assay: Cell migration, wound healing assay; format: cell-based, murine; settings: peptide 500 μM, 24 hours after wounding
Protocol: For the migration studies, 5×10^5 or 10^6 cells were distributed on 6-well plates and let them to adhere for 2 hours at 37° C./5% CO2. The culture medium was changed and the peptide was added at 500 μM overnight. The cell monolayer was “wounded” with a P1000 tip and incubated for 24 hours. Images of untreated cells (control) and peptide treated cells were captured with a JENOPTIK camera. Cell numbers (nuclei) were determined using the Pixcavator software version 5.0.
Viable B16F10-Nex2 cells (5×105)/well were distributed on a 6-well culture plate and incubated overnight at 37° C. in a humidified chamber with 5% CO2. A P1000 tip was used for wounding the cell monolayer and the image was immediately captured (0 hour) using a camera (Jenoptik) with the software Progres 2.8. After 24 hours a new image of the same field was obtained and recorded (24 hours).
Viable B16F10-Nex2 cells (3×10^5)/well were distributed in a 12-well culture plate and incubated for 4 hours at 37° C. in a humidified chamber with 5% CO2. Fresh medium containing RB10 (SEQ ID NO: 9) at different concentrations was added to the wells and incubated again for 4 hours. The monolayer wounding was performed as described above in Example 12, and images obtained accordingly. After 24 hours a new image in the same field was obtained and recorded (24 hours). […] Magnification ×100.

[2] = tested on: melanoma B16F10-Nex2 cells; assay: Alanine scanning series cell adhesion assay (MTT after trypsin-EDTA); format: cell-based, murine; settings: 1 mM peptide, 24 hours
Protocol: The peptide RB10 (SEQ ID NO: 9) was engineered to replace each amino acid by alanine using Ala-scan methodology, and thus help evaluate the role of each amino acid on biological effect, specifically on the hyper-adherence observed with 1 mM peptide.
For this purpose, viable melanoma B16F10-Nex2 cells (1×10^4)/well were distributed on a 96-well culture plate and incubated for 4 hours. Fresh media containing 1 mM of the alanine-scanning series for RB10 was added and incubated for 24 hours. Treated cells were detached with 30 μl/well of trypsin-EDTA for five minutes at 37° C. and gently washed with PBS. Cells were incubated for 4 hours with 0.5 mg/mL of MTT [3-(4,5-Dimethylthiazol-2-yl)-2,5-diphenyltetrazolium bromide] in fresh media and the formazan crystals were solubilized adding 1 volume of a 10% SDS solution overnight. Intensity was measured using a plate reader at 570 nm. […] The 100% value for each peptide represented the treated cells that had not been trypsinized.

Substance | inhibition of cell migration (words) [1] | trypsin/EDTA-resistant cell adherence [2]
CGTFEYRAQAGWAGRTA-NH2 [RB10 Scramble] | partial inhibition | –
YWCRAAFTTEAGRACQGG-NH2 (disulfide 3-15; N-terminus assumed; SMILES C[C@@H]1NC(=O)[C@H](C)NC(=O)[C@H](CCCNC(=N)N)NC(=O)[C@@H](NC(=O)[C@H](Cc2c[nH]c3ccccc23)NC(=O)[C@@H](N)Cc2ccc(O)cc2)CSSC[C@@H](C(=O)N[C@@H](CCC(N)=O)C(=O)NCC(=O)NCC(N)=O)NC(=O)[C@H](C)NC(=O)[C@H](CCCNC(=N)N)NC(=O)CNC(=O)[C@H](C)NC(=O)[C@H](CCC(=O)O)NC(=O)[C@H]([C@@H](C)O)NC(=O)[C@H]([C@@H](C)O)NC(=O)[C@H](Cc2ccccc2)NC1=O) [RB9 Sc2] | partial inhibition | –
AARGETARATFAYWGQG-NH2 [RB10 A1] | non-inhibition | normally detached
C(dA)RGETARATFAYWGQGC-NH2 [RB9 M5] | partial inhibition | –
CARGETAAATFAYWGQG-NH2 [RB10 A8] | partial inhibition | normally detached
C(dA)RGETARATFAYC-NH2 (C[dA]RGETARATFAYC-NH2; disulfide 1-14; N-terminus assumed; SMILES C[C@@H]1NC(=O)[C@H](CCCNC(=N)N)NC(=O)[C@H](C)NC(=O)[C@H]([C@@H](C)O)NC(=O)[C@H](CCC(=O)O)NC(=O)CNC(=O)[C@H](CCCNC(=N)N)NC(=O)[C@@H](C)NC(=O)[C@@H](N)CSSC[C@@H](C(N)=O)NC(=O)[C@H](Cc2ccc(O)cc2)NC(=O)[C@H](C)NC(=O)[C@H](Cc2ccccc2)NC(=O)[C@H]([C@@H](C)O)NC1=O) [RB9 M3] | partial inhibition | –
CARGETA(dCit)ATFAYWGQGC-NH2 [RB9 M4] | partial inhibition | –
C(dA)RGETA(dCit)ATFAYWGQ(dA)-NH2 (C[dA]RGETA[dCit]ATFAYWGQ[dA]-NH2; N-terminus assumed; SMILES C[C@H](NC(=O)[C@H](Cc1ccccc1)NC(=O)[C@@H](NC(=O)[C@H](C)NC(=O)[C@@H](CCCNC(N)=O)NC(=O)[C@H](C)NC(=O)[C@@H](NC(=O)[C@H](CCC(=O)O)NC(=O)CNC(=O)[C@H](CCCNC(=N)N)NC(=O)[C@@H](C)NC(=O)[C@@H](N)CS)[C@@H](C)O)[C@@H](C)O)C(=O)N[C@@H](Cc1ccc(O)cc1)C(=O)N[C@@H](Cc1c[nH]c2ccccc12)C(=O)NCC(=O)N[C@@H](CCC(N)=O)C(=O)N[C@H](C)C(N)=O) [RB10 M4] | partial inhibition | –
CGTFEYRAQAGWAGRTAC-NH2 (disulfide 1-18; N-terminus assumed; SMILES C[C@@H]1NC(=O)[C@H](Cc2c[nH]c3ccccc23)NC(=O)CNC(=O)[C@H](C)NC(=O)[C@H](CCC(N)=O)NC(=O)[C@H](C)NC(=O)[C@H](CCCNC(=N)N)NC(=O)[C@H](Cc2ccc(O)cc2)NC(=O)[C@H](CCC(=O)O)NC(=O)[C@H](Cc2ccccc2)NC(=O)[C@H]([C@@H](C)O)NC(=O)CNC(=O)[C@@H](N)CSSC[C@@H](C(N)=O)NC(=O)[C@H](C)NC(=O)[C@H]([C@@H](C)O)NC(=O)[C@H](CCCNC(=N)N)NC(=O)CNC1=O) [RB9 Scramble] | partial inhibition | –
CAAGETARATFAYWGQG-NH2 [RB10 A3] | partial inhibition | normally detached
C(dA)RGETA(dCit)ATFAYWGQ(dA)C-NH2 (C[dA]RGETA[dCit]ATFAYWGQ[dA]C-NH2; disulfide 1-18; N-terminus assumed; SMILES C[C@@H]1NC(=O)[C@H](Cc2ccccc2)NC(=O)[C@H]([C@@H](C)O)NC(=O)[C@H](C)NC(=O)[C@@H](CCCNC(N)=O)NC(=O)[C@H](C)NC(=O)[C@H]([C@@H](C)O)NC(=O)[C@H](CCC(=O)O)NC(=O)CNC(=O)[C@H](CCCNC(=N)N)NC(=O)[C@@H](C)NC(=O)[C@@H](N)CSSC[C@@H](C(N)=O)NC(=O)[C@@H](C)NC(=O)[C@H](CCC(N)=O)NC(=O)CNC(=O)[C@H](Cc2c[nH]c3ccccc23)NC(=O)[C@H](Cc2ccc(O)cc2)NC1=O) [RB9 M1] | partial inhibition | –
CARGETA(dCit)AT(dF)AYWGQ(dA)-NH2 (CARGETA[dCit]AT[dF]AYWGQ[dA]-NH2; N-terminus assumed; SMILES C[C@H](NC(=O)[C@@H](NC(=O)[C@H](CCC(=O)O)NC(=O)CNC(=O)[C@H](CCCNC(=N)N)NC(=O)[C@H](C)NC(=O)[C@@H](N)CS)[C@@H](C)O)C(=O)N[C@H](CCCNC(N)=O)C(=O)N[C@@H](C)C(=O)N[C@H](C(=O)N[C@H](Cc1ccccc1)C(=O)N[C@@H](C)C(=O)N[C@@H](Cc1ccc(O)cc1)C(=O)N[C@@H](Cc1c[nH]c2ccccc12)C(=O)NCC(=O)N[C@@H](CCC(N)=O)C(=O)N[C@H](C)C(N)=O)[C@@H](C)O) [RB10 M1] | partial inhibition | –
CARAETARATFAYWGQG-NH2 [RB10 A4] | partial inhibition | high trypsin/EDTA-resistant cell adherence
CARGEAARATFAYWGQG-NH2 [RB10 A6] | partial inhibition | high trypsin/EDTA-resistant cell adherence
CARGATARATFAYWGQG-NH2 [RB10 A5] | – | normally detached
C(dA)RGETA(dCit)AT(dF)AYWGQ(dA)C-NH2 (C[dA]RGETA[dCit]AT[dF]AYWGQ[dA]C-NH2; disulfide 1-18; N-terminus assumed; SMILES C[C@@H]1NC(=O)[C@H]([C@@H](C)O)NC(=O)[C@H](CCC(=O)O)NC(=O)CNC(=O)[C@H](CCCNC(=N)N)NC(=O)[C@@H](C)NC(=O)[C@@H](N)CSSC[C@@H](C(N)=O)NC(=O)[C@@H](C)NC(=O)[C@H](CCC(N)=O)NC(=O)CNC(=O)[C@H](Cc2c[nH]c3ccccc23)NC(=O)[C@H](Cc2ccc(O)cc2)NC(=O)[C@H](C)NC(=O)[C@@H](Cc2ccccc2)NC(=O)[C@H]([C@@H](C)O)NC(=O)[C@H](C)NC(=O)[C@@H](CCCNC(N)=O)NC1=O) [RB9 M2] | partial inhibition | –
CFIARAGWYATEARGGQC-NH2 [RB9 Sc3] | partial inhibition | –
